The values below come from US9012153B2, “Method for screening olfactory sensibility inhibitor” (Kao Corporation, priority 2008, dated 2015).

The test system of test [1] is voltage-dependent cation channel. The test can be described thus: Whole-cell recording of inward current in isolated olfactory receptor cells. The class given is cell-based, Cynops pyrrhogaster. As to the method: Olfactory receptor cells were isolated from newts (Cynops pyrrhogaster) through a known method (Kurahashi et al., J. Physiol. (1989), 419: 177-192) and bathed in a normal Ringer's solution. More specifically, each newt which had been hibernated in ice-water was double-pithed, and the skull thereof was cut, to thereby remove the olfactory membrane. The removed olfactory membrane was incubated in 0.1% collagenase solution at 37° C. for five minutes. After washing off collagenase, the membrane tissue was broken by means of a glass pipette, to thereby isolate olfactory cells. The normal Ringer's solution had the following composition: NaCl 110 mM, KCl 3.7 mM, CaCl2 3 mM, MgCl2 1 mM, glucose 15 mM, sodium pyruvate 1 mM, HEPES 2 mM, and Phenol Red 0.001% (w/v), with a pH of 7.4 (adjusted with NaOH).
The membrane current of the isolated olfactory cells was recorded through the whole-cell recording method, while the membrane potential was fixed (Kawai et al., J. Gen. Physiol. (1997), vol. 109: 265-272). The electrode employed was produced from borosilicate glass capillary (diameter: 1.2 mm) by means of a puller for electrode fabrication (PP-830, product of Narishige Scientific Instruments). […] Then, an electrode solution was added in the electrode, and an Ag—AgCl wire was inserted into the electrode. The Ag—AgCl wire was connected to a patch-clamp amplifier (Axopatch 1D, 200B, product of Axon Instrument), whereby fixation of the membrane potential and depolarization stimulation were performed. The employed electrode solution had the following composition: KCl 120 mM, HEPES 2 mM, and Phenol Red 0.001% (w/v), with a pH of 7.4 (adjusted with KOH). The membrane current was recorded by a computer which was connected by the mediation of the patch-clamp amplifier and an A/D converter (Digidata 1320, product of Axon Instrument). Each test substance was sprayed to the cells for stimulation, by means of a pressure-controller. The pressure controller is an apparatus which reduces the pressure of compressed air supplied by means of an air-compressor to a specific value under computer-controlled conditions and which feeds the compressed air for a predetermined period of time to a tail of the glass pipette in which the test substance has been charged (Ito et al., The Japanese Journal of Physiology, 1995, vol. 57, 127-133).
In order to investigate the effect of the test substance on the voltage-dependent cation channel activity, the membrane potential of the isolated olfactory cells was fixed to −100 mV, and depolarized to −20 mV for 20 ms at intervals of 200 ms. The peak amplitude of the inward current elicited immediately after depolarization was measured. Each of the test substances shown in Table 1 (1 μL) was mixed with the normal Ringer's solution (1 mL). Under continuous depolarization stimulation, the mixture was sprayed toward the olfactory cells (720 ms, at 50 kPa) through a glass pipette (tip diameter: 1 μm) that was placed such that the tip of the pipette was located in the vicinity ([…]) of the olfactory cells to add the mixture to the olfactory cells, and the change in inward current was monitored. Stimulation of one olfactory cell by the test substance was performed three times, and the three inward currents obtained from the cell were averaged. Each test substance was tested by three olfactory cells, and the three inward currents obtained from the cells were averaged. During the test, in very rare cases, the olfactory receptor responded to stimulation by the test substance, and inward current attributed to a CNG channel was observed. However, such cases were eliminated for evaluation. One conceivable reason for occurrence of such a case is that the test substance acts as an […] to the olfactory receptor on the olfactory cell employed in the test. CNG channel current is readily distinguishable from voltage-dependent channel current in terms of amplitude, peak shape, and duration. […]

For test [2], the system named is isovaleric acid (malodorous substance). The test can be described thus: Olfactory masking test based on sensory evaluation with 20 specialists. It counts as in vivo. Set-up: key: 0 = no masking effect, 5 = complete masking effect. The settings on record: isovaleric acid (1%) 2 μL, test substance 4 μl, vaporized and admixed in PP bottle; scale 0 (No masking effect) to 5 (Complete masking effect). The method, then:
An olfactory masking test based on sensory evaluation was performed with 20 specialists. Isovaleric acid (1%) was used as a malodorous substance, and each of the substances listed in Table 2 was employed as a masking material. The malodorous substance (2 μL) and each test substance (4 μl) were separately absorbed by cotton balls (diameter: 1 cm), and placed in each injection syringe (capacity: 50 mL) at room temperature for 12 hours to vaporized the substance therein. Both the vaporized malodorous substance and the vaporized test substance were injected into a PP bottle (capacity: 500 mL) with a cap and admixed in the bottle. In evaluation, each specialist slightly opened the cap of the PP bottle and smelled the odor in the bottle, whereby the masking score was determined. The masking score was evaluated by the following six criteria, based on the intensity of odor in a PP bottle to which only the malodorous substance had been added.
1: Only slight masking effect
3: Satisfactory masking effect
4: Substantially complete masking effect
5: Complete masking effect

Setting [3] is: test substance 1 μL in 1 mL normal Ringer's solution, sprayed 720 ms at 50 kPa, depolarized from −100 mV to −20 mV, (1−b/a)×100, average of three cells.
The mark [4] stands for this setting: values calculated in the experiments of Example 1, repeated in Table 3.

As to `CC(=O)OCc1ccccc1` [Benzyl acetate], the “Percent inward current inhibition” value in test [1] (setting [3]) was 110.8%.

For `CC(C=O)Cc1ccc(C(C)(C)C)cc1` (stereo not drawn) [p-tert-Butyl-α-methylhydrocinnamaldehyde], the “Percent inward current inhibition” value in test [1] (setting [3]) and in test [1] (setting [4]) was 57.9% in each case.

For the molecule `C=CCc1ccc(O)c(OC)c1` [Eugenol], in test [1] (setting [3]), the “Percent inward current inhibition” value was determined as 105.0%.

Turning to `CCOC(=O)C(C)CC` (centres unmarked) [Ethyl 2-methylbutyrate], the “Percent inward current inhibition” value in test [1] (setting [3]) stood at 42.0%.

In the case of `CC/C=C\CCO` [cis-3-Hexenol], the “Percent inward current inhibition” value in test [1] (setting [3]) and in test [1] (setting [4]) was 78.7% throughout. The molecule further returned a Masking score in test [2] of 4.5.

On to `C/C=C/C(=O)C1=C(C)CCCC1(C)C` [β-Damascone], for which the “Percent inward current inhibition” value in test [1] (setting [3]) and in test [1] (setting [4]) was 56.1% each time. In addition, in test [2], the Masking score is recorded as 2.4.

As to `CC(=O)OC1CCCCC1C(C)(C)C` (centres unmarked) [o-tert-Butylcyclohexyl acetate], the “Percent inward current inhibition” value in test [1] (setting [3]) and in test [1] (setting [4]) was 23.8% throughout. Further, the Masking score in test [2] was found to be 1.8.

With `CC(C)=CCCC(C)=CC=O` [Citral], the “Percent inward current inhibition” value in test [1] (setting [3]) and in test [1] (setting [4]) was 110.6% throughout. In test [2], the Masking score was found to be 3.9.

For the molecule `CC(=CCC1CC=C(C)C1(C)C)CO` (centres unmarked) [2-Methyl-4-(2,2,3-trimethyl-3-cyclopenten-1-yl)-2-buten-1-ol], the “Percent inward current inhibition” value in test [1] (setting [3]) was determined as 105.6%.

For `CCOC(=O)C(C)C1CCCCC1` (centres unmarked) [Ethyl 2-cyclohexylpropionate], the “Percent inward current inhibition” value in test [1] (setting [3]) and in test [1] (setting [4]) was 48.7% in each case. In addition, the Masking score in test [2] was 3.0.

For `COc1ccc(C=O)cc1` [Anisaldehyde], the “Percent inward current inhibition” value in test [1] (setting [3]) and in test [1] (setting [4]) was 89.3% in each case. The same molecule had a Masking score in test [2] of 3.9.

On to `O=C(OCc1ccccc1)c1ccccc1` [Benzyl benzoate], for which the “Percent inward current inhibition” value in test [1] (setting [3]) and in test [1] (setting [4]) was 10.7% in each case. In test [2], the Masking score is given as 1.6.

For the molecule `CC(C)=CCC/C(C)=C/CO` [Geraniol], the “Percent inward current inhibition” value in test [1] (setting [3]) and in test [1] (setting [4]) was 90.1% in each case. For the same molecule, the Masking score in test [2] was 3.9.

Take `CCCCCCCCC=O` [n-Nonanal]: the “Percent inward current inhibition” value in test [1] (setting [3]) came out at 107.4%.

`OCCc1ccccc1` [β-Phenylethyl alcohol]: the “Percent inward current inhibition” value in test [1] (setting [3]) and in test [1] (setting [4]) was 82.6% each time. In addition, the Masking score in test [2] stood at 2.9.

Consider `C=CC(C)CCCC(C)(C)O` (centres unmarked) [Dihydromyrcenol], for which the “Percent inward current inhibition” value in test [1] (setting [3]) and in test [1] (setting [4]) was 109.0% throughout. The molecule also gave a Masking score in test [2] of 4.8.

For `CC(C)(O)CCCC1=CCC(C=O)CC1` (centres unmarked) [4-(4-Hydroxy-4-methylpentyl)-3-cyclohexene-1-carboxaldehyde], the “Percent inward current inhibition” value in test [1] (setting [3]) and in test [1] (setting [4]) was 35.7% in each case. The same molecule had a Masking score in test [2] of 1.7.

`O=Cc1ccccc1` [Benzaldehyde]: the “Percent inward current inhibition” value in test [1] (setting [3]) and in test [1] (setting [4]) was 95.4% throughout. Besides, the Masking score in test [2] amounted to 4.6.

With `C=CC(C)(O)CCC=C(C)C` (centres unmarked) [Linalool], the “Percent inward current inhibition” value in test [1] (setting [3]) and in test [1] (setting [4]) was 106.5% in each case. Besides, the Masking score in test [2] is listed as 4.1.

Regarding `CCCCCC1C(=O)CCC1CC(=O)OC` (centres unmarked) [Methyl dihydrojasmonate], in test [1] (setting [3]), the “Percent inward current inhibition” value is reported as 107.1%.

Turning to `CC12CCC(CC1)C(C)(C)O2` [1,8-Cineole], the “Percent inward current inhibition” value in test [1] (setting [3]) and in test [1] (setting [4]) was 46.5% in each case. Also, in test [2], the Masking score was 3.6.

`C=CC(C)(CCC=C(C)C)OC(C)=O` (centres unmarked) [Linalyl acetate]: the “Percent inward current inhibition” value in test [1] (setting [3]) and in test [1] (setting [4]) was 43.3% throughout. This molecule returned a Masking score in test [2] of 3.0.

Take `CCOC(=O)C12CCCC1C1CCC2C1` (centres unmarked) [Ethyltricyclo[5.2.1.0^2,6]decane-2-carboxylate]: the “Percent inward current inhibition” value in test [1] (setting [3]) and in test [1] (setting [4]) was 11.6% each time. For the same molecule, the Masking score in test [2] is reported as 1.9.

Turning to `CC(=O)OCCC(C)C` [Isoamyl acetate], the “Percent inward current inhibition” value in test [1] (setting [3]) and in test [1] (setting [4]) was 92.0% in each case. Also, the Masking score in test [2] is recorded as 4.5.

For `CC1=CC(C)C(C=O)CC1` (centres unmarked) [2,4-Dimethyl-3-cyclohexene-1-carboxaldehyde], the “Percent inward current inhibition” value in test [1] (setting [3]) and in test [1] (setting [4]) was 79.9% throughout. Also, the Masking score in test [2] was found to be 4.5.

With `CCC(O)COC1CCCCC1C(C)(C)C` (centres unmarked) [1-(2-tert-Butylcyclohexyloxy)-2-butanol], the “Percent inward current inhibition” value in test [1] (setting [3]) and in test [1] (setting [4]) was 27.1% throughout. In addition, the Masking score in test [2] was 1.7.
